Measurements published in PMC11434840, “Discovery of Benzopyrone-Based Candidates as Potential Antimicrobial and Photochemotherapeutic Agents through Inhibition of DNA Gyrase Enzyme B: Design, Synthesis, In Vitro and In Silico Evaluation” (Pharmaceuticals, 2024).
Like-named read-outs stand apart in the source and are kept apart here.

Columns and labels:
[1] = tested on: Candida albicans ATCC 10231; test: Antimicrobial agar cup-plate assay, C. albicans; type: cell-based; set-up: key to Inhibition Zone (mm) C. albicans: -: no activity; conditions: for Inhibition Zone (mm) C. albicans: 0.1 mL of compound in DMF, overnight incubation, mean ± SD, at least three experiments
Procedure: (§1) The antimicrobial activity of all newly synthesized compounds was determined using the agar cup-plate method using the Hi-Media agar medium. Xanthotoxin, tobramycin, and amphotericin B were used as reference drugs. All newly synthesized compounds were tested against two strains of Gram-positive bacteria (Bacillus subtilis ATCC 14579 and Staphylococcus aureus ATCC 25923), Gram-negative bacteria (Escherichia coli ATCC 25922), and yeast (Candida albicans ATCC 10231).
(§2) The nutrient agar medium consists of 0.3% of beef extract, 0.5% of peptone, 0.1% dipotassium hydrogen phosphate, and 1.5% agar. Broth cultures of the organisms were prepared by incubating slant agar seeded with the organisms overnight.
(§3) The prepared broth culture (0.02 mL) was carefully added to sterile Petri dishes. Then, 10 mL of the liquefied nutrient agar medium was poured into each dish, mixed uniformly, and allowed to solidify. Using a sterilized cork borer, cups (9 mm) were scooped out of the agar media contained in the Petri dishes. Each test compound (50 mg) was dissolved in 1 mL DMF (50 mg mL^−1), which was used as a stock solution to carry out the twofold dilution technique. A fixed volume (0.1 mL) of the tested compounds dissolved in dimethylformamide (DMF) was added. Each plate contained a cup filled with DMF to disregard the effect of solvent. Additionally, two other cups were filled with tobramycin and xanthotoxin being used as reference drugs. The plates were incubated overnight to examine the antimicrobial activity. Zones of inhibition obtained by each test compound were measured in millimeters and the results are recorded in Table 2.
(§4) GraphPad Prism-version 5 (GraphPad Software, Inc., La Jolla, CA, USA) was used for statistical analysis.

[2] = tested on: Bacillus subtilis ATCC 14579; test: Antimicrobial agar cup-plate assay, B. subtilis; type: cell-based; conditions: 0.1 mL of compound in DMF, overnight incubation, mean ± SD, at least three experiments
Procedure: as §1, §2, §3, §4

[3] = tested on: Staphylococcus aureus ATCC 25923; test: Antimicrobial agar cup-plate assay, S. aureus; type: cell-based; set-up: key: -: no activity; conditions: 0.1 mL of compound in DMF, overnight incubation, mean ± SD, at least three experiments
Procedure: as §1, §2, §3, §4

[4] = tested on: Escherichia coli ATCC 25922; test: Antimicrobial agar cup-plate assay, E. coli; type: cell-based; set-up: key to Inhibition Zone (mm) E. coli: -: no activity; conditions: for Inhibition Zone (mm) E. coli: 0.1 mL of compound in DMF, overnight incubation, mean ± SD, at least three experiments
Procedure: as §1, §2, §3, §4

[5] = tested on: Bacillus subtilis ATCC 14579; test: Photosensitizing assay (MIC before and after UV irradiation, agar cup-plate); type: cell-based; conditions: for MIC: Bacillus subtilis, ATCC14579, light or radiation study; for photosensitizing activity against B. subtilis (in words): after 20 min of irradiation
Procedure: The photosensitizing activity was determined using the agar cup-plate method (described in Section 2.3) with Hi-Media agar medium. The antibacterial activity against Bacillus subtilis ATCC 14579 was measured before and after exposure to UV lamp (365 nm). The diameters of the inhibition zones were measured in mm and the results were compared with xanthotoxin. The tested organism used was Bacillus subtilis.
For the photosensitizing activity, xanthotoxin was used as a reference drug and DMF as a negative control. The minimum inhibitory concentrations (MIC) were determined using the agar cup-plate method. Each test compound (50 mg) was dissolved in 1 mL DMF (50 mg mL^−1), which was used as a stock solution to carry out the twofold dilution technique. The sample size for all the compounds was adjusted to 0.1 mL. The solution of the test compound (0.1 mL) was added to the cups. The plates were divided into test plates and duplicate plates. Before irradiation, the test plates were incubated in the dark at 37 °C for 3 h to permit the diffusion of the tested compounds through the agar layer. The duplicate plates were incubated overnight and used as a control for the determination of the antibacterial activity. The covers were removed from the test plates, and the dishes were exposed to UV lamp (365 nm) for 20 min. After irradiation, the plates were left overnight in the dark at 37 °C. MIC, the least concentration preventing visible bacterial growth, was determined in both the control and test, indicating the antibacterial and photosensitizing activity of the tested compounds, respectively.
To evaluate the significance of the difference in the results, each experiment was repeated at least three times. […] GraphPad Prism-version 5 (GraphPad Software, Inc., La Jolla, CA, USA) was used to perform statistical analysis of the results.

[6] = 20 min, B. subtilis, after irradiation with UV lamp (365 nm) for 20 min (photosensitizing activity), 100 μL per cup, read-out: MIC (mg mL^−1) Test
[7] = 20 min, B. subtilis, after irradiation with UV lamp (365 nm) for 20 min (photosensitizing activity), read-out: MIC (mM) Test
[8] = B. subtilis, without irradiation (antibacterial activity), 100 μL per cup, read-out: MIC (mg mL^−1) Control
[9] = B. subtilis, without irradiation (antibacterial activity), read-out: MIC (mM) Control

SMILES: C[C@@H]1[C@H](O)[C@@H](C)/C=C/C=C/C=C/C=C/C=C/C=C/C=C/[C@H](O[C@@H]2O[C@H](C)[C@@H](O)[C@H](N)[C@@H]2O)C[C@@H]2O[C@](O)(C[C@@H](O)C[C@@H](O)[C@H](O)CC[C@@H](O)C[C@@H](O)CC(=O)O[C@H]1C)C[C@H](O)[C@H]2C(=O)O [Amphotercin B, amphotericin B, reference compound]
- Inhibition Zone (mm) C. albicans [1]: 14 ± 1.414 mm

SMILES: CCc1cc2c(C)cc(=O)oc2cc1OC(C)C(C)=O (centres unmarked) [Compound 2a, 6-Ethyl-4-methyl-7-(3-oxobutan-2-yloxy)-2H-1-benzopyran-2-one]
- Inhibition Zone (mm) B. subtilis [2]: 15 ± 1.414 mm
- Inhibition Zone (mm) S. aureus [3]: 14 ± 1.414 mm
- antibacterial activity against E. coli (in words) [4]: inactive
- Inhibition Zone (mm) E. coli [4]: -
- Inhibition Zone (mm) C. albicans [1]: 11 ± 0.8165 mm
- MIC [5, 6]: 6250 µg/mL
- MIC [5, 7]: 22.8 mM
- MIC [5, 8]: 6250 µg/mL
- MIC [5, 9]: 22.8 mM
- melting point: 95 to 97 °C

SMILES: CCc1cc2c(-c3ccccc3)cc(=O)oc2cc1OC(C)C(C)=O (centres unmarked) [Compound 2b, 6-Ethyl-7-(3-oxobutan-2-yloxy)-4-phenyl-2H-1-benzopyran-2-one]
- Inhibition Zone (mm) B. subtilis [2]: 14 ± 0.8165 mm
- Inhibition Zone (mm) S. aureus [3]: 22 ± 1.414 mm
- antibacterial activity against E. coli (in words) [4]: inactive
- Inhibition Zone (mm) E. coli [4]: -
- Inhibition Zone (mm) C. albicans [1]: 15 ± 1.414 mm
- MIC [5, 6]: 6250 µg/mL
- MIC [5, 7]: 18.6 mM
- MIC [5, 8]: 6250 µg/mL
- MIC [5, 9]: 18.6 mM
- melting point: 100 to 102 °C

SMILES: CCc1cc2c(C)cc(=O)oc2c2c(C)c(C)oc12 [Compound 3a, 9-Ethyl-2,3,7-trimethyl-5H-furo[2,3-h]benzopyran-5-one]
- Inhibition Zone (mm) B. subtilis [2]: 20 ± 0.8165 mm
- Inhibition Zone (mm) S. aureus [3]: 30 ± 1.414 mm
- Inhibition Zone (mm) E. coli [4]: 15 ± 1.414 mm
- Inhibition Zone (mm) C. albicans [1]: 16 ± 0.8165 mm
- MIC [5, 6]: 780 µg/mL
- MIC [5, 7]: 3.04 mM
- MIC [5, 8]: 780 µg/mL
- MIC [5, 9]: 3.04 mM
- photosensitizing activity against B. subtilis (in words) [5]: without any photosensitizing activity
- melting point: 199 to 201 °C

SMILES: CCc1cc2c(-c3ccccc3)cc(=O)oc2c2c(C)c(C)oc12 [Compound 3b, 2,3-Dimethyl-9-ethyl-7-phenyl-5H-furo[2,3-h]benzopyran-5-one]
- Inhibition Zone (mm) B. subtilis [2]: 10 ± 1.414 mm
- Inhibition Zone (mm) S. aureus [3]: 22 ± 0.8165 mm
- Inhibition Zone (mm) E. coli [4]: 16 ± 1.414 mm
- Inhibition Zone (mm) C. albicans [1]: 15 ± 1.414 mm
- MIC [5, 6]: 3120 µg/mL
- MIC [5, 7]: 9.82 mM
- MIC [5, 8]: 3120 µg/mL
- MIC [5, 9]: 9.82 mM
- photosensitizing activity against B. subtilis (in words) [5]: without any photosensitizing activity
- melting point: 90 to 92 °C

SMILES: CCc1cc2c(C)cc(=O)oc2cc1OC1CCCCC1=O (centres unmarked) [Compound 4a, 6-Ethyl-4-methyl-7-(2-oxocyclohexyloxy)-2H-1-benzopyran-2-one]
- Inhibition Zone (mm) B. subtilis [2]: 15 ± 0.8165 mm
- Inhibition Zone (mm) S. aureus [3]: 24 ± 1.414 mm
- antibacterial activity against E. coli (in words) [4]: inactive
- Inhibition Zone (mm) E. coli [4]: -
- Inhibition Zone (mm) C. albicans [1]: 18 ± 1.414 mm
- MIC [5, 6]: 780 µg/mL
- MIC [5, 7]: 2.6 mM
- MIC [5, 8]: 3120 µg/mL
- MIC [5, 9]: 10.4 mM
- melting point: 160 to 162 °C

SMILES: CCc1cc2c(-c3ccccc3)cc(=O)oc2cc1OC1CCCCC1=O (centres unmarked) [Compound 4b, 6-Ethyl-7-(2-oxocyclohexyloxy)-4-phenyl-2H-1-benzopyran-2-one]
- Inhibition Zone (mm) B. subtilis [2]: 17 ± 0.8165 mm
- Inhibition Zone (mm) S. aureus [3]: 29 ± 0.8165 mm
- antibacterial activity against E. coli (in words) [4]: inactive
- Inhibition Zone (mm) E. coli [4]: -
- Inhibition Zone (mm) C. albicans [1]: 14 ± 1.414 mm
- MIC [5, 6]: 3120 µg/mL
- MIC [5, 7]: 8.62 mM
- MIC [5, 8]: 3120 µg/mL
- MIC [5, 9]: 8.62 mM
- melting point: 150 to 152 °C

SMILES: CCc1cc2c(C)cc(=O)oc2c2c3c(oc12)CCCC3 [Compound 5a, 6-Ethyl-4-methyl-8,9,10,11-tetrahydro-2H-benzofuro[2,3-h]benzopyran-2-one]
- Inhibition Zone (mm) B. subtilis [2]: 22 ± 0.8165 mm
- Inhibition Zone (mm) S. aureus [3]: 30 ± 0.8165 mm
- Inhibition Zone (mm) E. coli [4]: 16 ± 1.414 mm
- Inhibition Zone (mm) C. albicans [1]: 18 ± 0.8165 mm
- MIC [5, 6]: 780 µg/mL
- MIC [5, 7]: 2.76 mM
- MIC [5, 8]: 3120 µg/mL
- MIC [5, 9]: 11.1 mM

SMILES: CCc1cc2c(-c3ccccc3)cc(=O)oc2c2c3c(oc12)CCCC3 [Compound 5b, 6-Ethyl-4-phenyl-8,9,10,11-tetrahydro-2H-benzofuro[2,3-h]benzopyran-2-one]
- Inhibition Zone (mm) B. subtilis [2]: 22 ± 1.414 mm
- Inhibition Zone (mm) S. aureus [3]: 26 ± 0.8165 mm
- Inhibition Zone (mm) E. coli [4]: -
- antifungal activity against C. albicans (in words) [1]: inactive
- Inhibition Zone (mm) C. albicans [1]: -
- MIC [5, 6]: 780 µg/mL
- MIC [5, 7]: 2.26 mM
- MIC [5, 8]: 3120 µg/mL
- MIC [5, 9]: 9.07 mM
- melting point: 108 to 110 °C

SMILES: NC[C@H]1O[C@H](O[C@H]2[C@H](O)[C@@H](O[C@H]3O[C@H](CO)[C@@H](O)[C@H](N)[C@H]3O)[C@H](N)C[C@@H]2N)[C@H](N)C[C@@H]1O [Tobramycin, reference compound]
- Inhibition Zone (mm) S. aureus [3]: 21 ± 0.8165 mm
- Inhibition Zone (mm) E. coli [4]: 20 ± 1.414 mm

SMILES: COc1c2occc2cc2ccc(=O)oc12 [Xanthotoxin, reference compound]
- Inhibition Zone (mm) B. subtilis [2]: 13 ± 0.8165 mm
- Inhibition Zone (mm) S. aureus [3]: -
- Inhibition Zone (mm) E. coli [4]: 25 ± 0.8165 mm
- Inhibition Zone (mm) C. albicans [1]: 15 ± 0.8165 mm
- MIC (mM) Test ([5]; B. subtilis, after irradiation with UV lamp (365 nm) for 20 min (photosensitizing activity)): 6.94 mM
- MIC (mg mL^−1) Test ([5]; B. subtilis, after irradiation with UV lamp (365 nm) for 20 min (photosensitizing activity), 100 μL per cup): 1500 µg/mL
- MIC (mM) Control ([5]; B. subtilis, without irradiation (antibacterial activity)): 57.82 mM
- MIC (mg mL^−1) Control ([5]; B. subtilis, without irradiation (antibacterial activity), 100 μL per cup): 12500 µg/mL
